Results as given in paper PMC9030254, “Target Hopping from Protein Kinases to PXR: Identification of Small-Molecule Protein Kinase Inhibitors as Selective Modulators of Pregnane X Receptor from TüKIC Library” (Cells, 2022).

Tests used:
Test in all cases: Kinase profiling
Format in all cases: biochemical
PDGFRalpha = target: T1, PDGFRalpha (Homo sapiens, UniProt P16234)
T1 construct: purchased ProQinase (Freiburg, Germany)
Experimental: (§1) The analysis was performed by ProQinase (Freiburg, Germany).

STK17A = target: T2, STK17A (Homo sapiens, UniProt Q9UEE5)
T2 construct: purchased ProQinase (Freiburg, Germany)
T2 sequence (Q9UEE5 1-414): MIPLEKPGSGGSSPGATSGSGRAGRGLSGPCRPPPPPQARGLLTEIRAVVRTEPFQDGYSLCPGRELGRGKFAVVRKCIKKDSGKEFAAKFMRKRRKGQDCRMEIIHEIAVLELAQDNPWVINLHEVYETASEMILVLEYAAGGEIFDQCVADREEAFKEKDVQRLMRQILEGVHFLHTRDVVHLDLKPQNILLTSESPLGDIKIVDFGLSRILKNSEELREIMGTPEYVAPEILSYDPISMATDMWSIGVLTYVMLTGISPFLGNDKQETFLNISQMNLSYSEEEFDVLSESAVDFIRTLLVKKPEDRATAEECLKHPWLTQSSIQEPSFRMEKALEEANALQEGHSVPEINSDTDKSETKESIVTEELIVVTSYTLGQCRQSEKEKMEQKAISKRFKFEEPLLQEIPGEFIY
Experimental: as §1

BRSK1 = target: T3, BRSK1 (Homo sapiens, UniProt Q8TDC3)
T3 construct: purchased ProQinase (Freiburg, Germany)
T3 sequence (Q8TDC3 1-778): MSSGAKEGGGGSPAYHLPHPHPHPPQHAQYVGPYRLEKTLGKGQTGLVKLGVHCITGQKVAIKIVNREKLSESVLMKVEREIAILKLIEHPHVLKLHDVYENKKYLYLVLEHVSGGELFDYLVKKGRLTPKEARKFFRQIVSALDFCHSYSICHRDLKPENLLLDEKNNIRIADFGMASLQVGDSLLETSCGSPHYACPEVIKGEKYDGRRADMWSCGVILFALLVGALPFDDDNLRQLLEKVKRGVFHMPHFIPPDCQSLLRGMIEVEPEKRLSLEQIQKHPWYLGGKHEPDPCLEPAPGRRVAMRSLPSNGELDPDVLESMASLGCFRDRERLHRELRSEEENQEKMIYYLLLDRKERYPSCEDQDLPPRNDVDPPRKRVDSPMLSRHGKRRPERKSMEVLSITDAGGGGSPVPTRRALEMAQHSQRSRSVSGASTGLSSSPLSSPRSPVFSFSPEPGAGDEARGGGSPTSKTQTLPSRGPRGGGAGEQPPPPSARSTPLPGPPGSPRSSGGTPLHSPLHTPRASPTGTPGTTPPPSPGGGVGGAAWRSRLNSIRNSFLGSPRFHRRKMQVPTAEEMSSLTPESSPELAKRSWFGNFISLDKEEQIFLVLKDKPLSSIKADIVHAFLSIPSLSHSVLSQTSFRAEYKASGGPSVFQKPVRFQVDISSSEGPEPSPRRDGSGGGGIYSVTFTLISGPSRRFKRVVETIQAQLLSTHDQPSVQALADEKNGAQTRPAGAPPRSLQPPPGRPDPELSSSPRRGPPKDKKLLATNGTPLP
Experimental: as §1

NEK2 = target: T4, NEK2 (Homo sapiens, UniProt P51955)
T4 construct: purchased ProQinase (Freiburg, Germany)
T4 sequence (P51955 1-445): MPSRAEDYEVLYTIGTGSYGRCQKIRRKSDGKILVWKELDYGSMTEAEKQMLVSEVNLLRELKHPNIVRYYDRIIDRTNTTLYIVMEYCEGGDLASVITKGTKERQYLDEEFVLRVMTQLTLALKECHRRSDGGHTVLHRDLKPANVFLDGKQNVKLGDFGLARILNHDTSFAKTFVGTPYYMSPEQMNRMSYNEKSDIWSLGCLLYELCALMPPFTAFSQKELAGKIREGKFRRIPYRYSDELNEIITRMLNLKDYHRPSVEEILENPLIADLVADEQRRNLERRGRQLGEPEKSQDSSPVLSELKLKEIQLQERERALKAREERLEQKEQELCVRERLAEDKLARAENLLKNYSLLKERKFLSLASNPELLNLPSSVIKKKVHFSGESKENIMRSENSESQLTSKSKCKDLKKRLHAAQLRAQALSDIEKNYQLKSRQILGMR
Experimental: as §1

ITK = target: T5, ITK (Homo sapiens, UniProt Q08881)
T5 construct: purchased ProQinase (Freiburg, Germany)
T5 sequence (Q08881 1-620): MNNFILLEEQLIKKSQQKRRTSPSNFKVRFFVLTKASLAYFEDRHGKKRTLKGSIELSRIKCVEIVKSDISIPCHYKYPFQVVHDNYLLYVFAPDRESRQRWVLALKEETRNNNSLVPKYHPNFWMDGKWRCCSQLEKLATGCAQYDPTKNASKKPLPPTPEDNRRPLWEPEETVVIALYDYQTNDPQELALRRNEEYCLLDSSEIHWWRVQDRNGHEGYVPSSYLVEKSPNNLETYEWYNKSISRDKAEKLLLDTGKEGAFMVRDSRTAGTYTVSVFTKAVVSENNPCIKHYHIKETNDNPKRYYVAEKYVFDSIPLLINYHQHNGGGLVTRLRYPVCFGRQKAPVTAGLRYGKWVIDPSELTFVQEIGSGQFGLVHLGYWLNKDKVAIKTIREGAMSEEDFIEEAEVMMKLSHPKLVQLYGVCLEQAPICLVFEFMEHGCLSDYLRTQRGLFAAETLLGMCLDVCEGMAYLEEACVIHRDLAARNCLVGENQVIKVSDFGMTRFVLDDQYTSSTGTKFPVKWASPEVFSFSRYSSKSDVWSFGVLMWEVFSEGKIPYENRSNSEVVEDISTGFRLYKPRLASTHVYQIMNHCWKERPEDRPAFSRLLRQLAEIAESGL
Experimental: as §1

MINK1 = target: T6, MINK1 (Homo sapiens, UniProt Q8N4C8)
T6 construct: purchased ProQinase (Freiburg, Germany)
Experimental: as §1

T1 sequence (P16234 24-1089): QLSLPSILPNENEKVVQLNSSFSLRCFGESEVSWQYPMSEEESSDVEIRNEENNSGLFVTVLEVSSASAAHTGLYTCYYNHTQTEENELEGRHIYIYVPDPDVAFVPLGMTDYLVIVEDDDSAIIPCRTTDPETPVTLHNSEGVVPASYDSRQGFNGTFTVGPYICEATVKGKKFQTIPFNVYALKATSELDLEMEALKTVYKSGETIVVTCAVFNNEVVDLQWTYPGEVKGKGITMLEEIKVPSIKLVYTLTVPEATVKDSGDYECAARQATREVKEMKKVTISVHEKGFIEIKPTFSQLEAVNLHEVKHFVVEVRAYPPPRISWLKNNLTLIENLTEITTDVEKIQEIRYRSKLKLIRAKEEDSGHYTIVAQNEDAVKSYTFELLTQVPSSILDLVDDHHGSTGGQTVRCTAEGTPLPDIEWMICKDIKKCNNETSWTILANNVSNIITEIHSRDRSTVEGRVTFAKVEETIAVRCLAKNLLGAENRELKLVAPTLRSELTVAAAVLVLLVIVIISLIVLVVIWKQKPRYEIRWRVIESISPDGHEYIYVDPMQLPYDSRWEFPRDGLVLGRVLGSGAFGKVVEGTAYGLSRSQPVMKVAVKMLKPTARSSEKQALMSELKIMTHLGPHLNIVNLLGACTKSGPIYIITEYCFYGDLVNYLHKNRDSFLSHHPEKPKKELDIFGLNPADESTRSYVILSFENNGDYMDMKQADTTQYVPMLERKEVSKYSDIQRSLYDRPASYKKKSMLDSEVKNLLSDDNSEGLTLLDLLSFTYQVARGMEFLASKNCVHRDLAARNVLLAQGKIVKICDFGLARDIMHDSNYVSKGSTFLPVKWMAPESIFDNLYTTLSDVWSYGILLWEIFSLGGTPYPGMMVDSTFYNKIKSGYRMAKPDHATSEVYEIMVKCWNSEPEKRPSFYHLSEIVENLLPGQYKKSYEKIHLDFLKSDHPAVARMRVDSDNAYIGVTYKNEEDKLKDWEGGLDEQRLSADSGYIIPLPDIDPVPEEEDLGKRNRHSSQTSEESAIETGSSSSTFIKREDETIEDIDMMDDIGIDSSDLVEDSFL
T6 sequence (Q8N4C8 whole entry): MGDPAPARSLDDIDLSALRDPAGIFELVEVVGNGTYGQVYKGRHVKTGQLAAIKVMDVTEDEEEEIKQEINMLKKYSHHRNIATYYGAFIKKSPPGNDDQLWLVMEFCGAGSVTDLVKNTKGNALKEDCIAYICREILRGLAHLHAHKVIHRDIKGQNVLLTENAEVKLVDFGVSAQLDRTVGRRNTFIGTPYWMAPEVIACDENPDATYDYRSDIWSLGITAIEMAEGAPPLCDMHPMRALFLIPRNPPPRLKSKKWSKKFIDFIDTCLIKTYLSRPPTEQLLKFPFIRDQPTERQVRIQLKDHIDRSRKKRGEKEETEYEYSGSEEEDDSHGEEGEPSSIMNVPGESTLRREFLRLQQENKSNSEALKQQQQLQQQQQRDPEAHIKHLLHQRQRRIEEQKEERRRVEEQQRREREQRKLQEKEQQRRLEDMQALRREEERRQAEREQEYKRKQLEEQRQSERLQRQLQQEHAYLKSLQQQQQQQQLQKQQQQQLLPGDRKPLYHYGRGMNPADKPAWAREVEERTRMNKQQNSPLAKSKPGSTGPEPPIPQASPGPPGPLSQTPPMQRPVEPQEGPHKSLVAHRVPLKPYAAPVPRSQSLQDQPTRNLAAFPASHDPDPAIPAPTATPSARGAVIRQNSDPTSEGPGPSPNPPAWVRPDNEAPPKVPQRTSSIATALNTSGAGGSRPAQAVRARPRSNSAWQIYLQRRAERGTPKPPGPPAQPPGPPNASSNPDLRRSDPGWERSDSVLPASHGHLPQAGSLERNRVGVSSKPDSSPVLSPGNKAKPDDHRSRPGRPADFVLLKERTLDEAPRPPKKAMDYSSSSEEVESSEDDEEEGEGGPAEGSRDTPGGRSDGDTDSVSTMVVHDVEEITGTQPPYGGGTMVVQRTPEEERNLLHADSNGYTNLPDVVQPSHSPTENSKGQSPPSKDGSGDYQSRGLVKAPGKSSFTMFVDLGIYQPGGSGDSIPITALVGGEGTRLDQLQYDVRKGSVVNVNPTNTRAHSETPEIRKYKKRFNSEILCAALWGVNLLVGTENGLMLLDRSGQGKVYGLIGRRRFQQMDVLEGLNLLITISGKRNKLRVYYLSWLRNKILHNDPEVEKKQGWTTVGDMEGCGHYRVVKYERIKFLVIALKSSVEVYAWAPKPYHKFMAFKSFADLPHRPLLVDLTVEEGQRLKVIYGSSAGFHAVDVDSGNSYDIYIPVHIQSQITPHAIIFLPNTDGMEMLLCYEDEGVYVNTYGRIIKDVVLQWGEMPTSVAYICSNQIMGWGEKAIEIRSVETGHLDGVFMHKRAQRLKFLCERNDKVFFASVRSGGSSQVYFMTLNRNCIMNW

Structure (SMILES)	Residual activity (PDGFRalpha; 1.0E-05 M)	Residual activity (PDGFRalpha; 1.0E-06 M)	Residual activity (STK17A; 1.0E-05 M)	Residual activity (STK17A; 1.0E-06 M)	Residual activity (BRSK1; 1.0E-05 M)	Residual activity (BRSK1; 1.0E-06 M)	Residual activity (NEK2; 1.0E-05 M)	Residual activity (NEK2; 1.0E-06 M)	Residual activity (ITK; 1.0E-05 M)	Residual activity (ITK; 1.0E-06 M)	Residual activity (MINK1; 1.0E-05 M)	Residual activity (MINK1; 1.0E-06 M)
O=C(Cc1ccccc1)Nc1ccc(F)c(Nc2ccc3c(c2)CCCCC3=O)c1 [Compound 100]	95 % of control	107 % of control	76 % of control	111 % of control	91 % of control	101 % of control	97 % of control	105 % of control	75 % of control	94 % of control	73 % of control	89 % of control
O=C(Nc1ccc(F)c(Nc2ccc3c(c2)CCCCC3=O)c1)c1cccc(F)c1 [Compound 109]	92 % of control	96 % of control	88 % of control	105 % of control	92 % of control	92 % of control	101 % of control	96 % of control	82 % of control	93 % of control	57 % of control	86 % of control
